In brackets after ≈: the same amount, converted by molar mass. Where two headings read alike, the source gives them in different places.
Legend:
Aspergillus niger = experiment: 95% growth inhibitory concentration, Aspergillus niger; type: cell-based, Aspergillus niger IFO 9455; details: IFO9455, 72 h, read-out: 95% Growth inhibitory concentration, Aspergillus niger
Procedure: (§1) Strains for use in test: Candida albicans, IFO 1594 Aspergillus niger, IFO 9455
(§2) Culture medium: Liquid Sabouraud's medium (maltose 40 g, proteose peptone 10 g, distilled water 1000 ml)
(§3) Positive control: amphotericin B (Sigma) 5-fluorocytosine (Wako Junyaku, Japan)
(§4) A sample was diluted with culture medium to vary concentrations and poured into test tubes each to contain 5 ml, and a platinum loop of spores was inoculated in each tube. After shaken cultivation at 37° C. for 3 days, formalin (0.5 ml) was added and well mixed. The mixture was centrifuged at 3500 rpm for 10 minutes to collect fungi, which were in turn dewatered on a filter paper, dried at 100° C. for one hour and weighed. The growth rate was determined by the following equation [formula] 95% growth-inhibitory concentration (up to 5% growth rate): a mean value of sample concentrations producing 95% growth inhibitory effects.

Candida albicans = experiment: 95% growth inhibitory concentration, Candida albicans; type: cell-based, Candida albicans IFO 1594; details: read-out: 95% Growth inhibitory concentration, Candida albicans
Procedure: as §1, §2, §3
A culture resulting from shaken cultivation at 37° C. overnight was diluted 100-fold with the culture medium and used as seed culture.
A sample was diluted with the culture medium to vary concentrations and poured into test tubes each to contain 5 ml, and the seed culture (100 μl) was inoculated. After cultivation with shaking at 37° C. for 18 hours, formalin (0.5 ml) was added, thoroughly mixed, and diluted 10-fold with the culture medium. The resultant liquor was measured for absorbancy at 660 nm. The growth rate (%) was determined according to the equation [formula]
as §4

[1] = one week toxicity test, intraperitoneal; type: in vivo; details: 5 male ICR mice of 5 weeks age, dose not given
fungi = details: Japanese Patent Publication No. 263121/1987; cited from earlier work
platelet aggregation = details: literature; cited from earlier work
[2] = Aspergillus niger IFO 9455, liquid Sabouraud's medium, 37° C., 3 days, dry weight, up to 5% growth rate, mean value
[3] = IFO1594, Candida albicans IFO 1594, liquid Sabouraud's medium, 37° C., 18 hours, up to 5% growth rate, mean value

Compound | IC95 (Aspergillus niger; [2]) | IC95 (Candida albicans; [3]) | further results
Nc1nc(=O)[nH]cc1F [5-fluorocytosine, reference compound] | 80 µg/mL (≈ 620 µM) | 20 µg/mL (≈ 155 µM) | 
C[C@@H]1[C@H](O)[C@@H](C)/C=C/C=C/C=C/C=C/C=C/C=C/C=C/[C@H](O[C@@H]2O[C@H](C)[C@@H](O)[C@H](N)[C@@H]2O)C[C@@H]2O[C@](O)(C[C@@H](O)C[C@@H](O)[C@H](O)CC[C@@H](O)C[C@@H](O)CC(=O)O[C@H]1C)C[C@H](O)[C@H]2C(=O)O [Amphotericin B, reference compound] |  |  | IC95 (Aspergillus niger; Aspergillus niger): > 0.8 µg/mL; IC95 (Candida albicans; Candida albicans, IFO1594, 18 h): 0.2 µg/mL (≈ 0.216 µM)
C=CCSSC=CCS(=O)(=O)CC=C [Compound 1] | 28.5 µg/mL (≈ 114 µM) | 5.4 µg/mL (≈ 21.6 µM) | mortality after one week [1]: no mortality was observed
C=CCSSC=CC[S+](C)[O-] (stereo not shown) [Compound 5] | 57.3 µg/mL (≈ 275 µM) |  | 
C=CC[S+]([O-])SC=CCS(=O)(=O)CC=C (stereo not shown) [Compound 7] | 30.8 µg/mL (≈ 116 µM) |  | 
CCOC(=O)CCCSSC=CC[S+]([O-])CCCC(=O)OCC (stereo not shown) [Compound 10] | 80.4 µg/mL (≈ 210 µM) |  | 
C=CCS(=O)(=O)CC=CSSCc1ccccc1 [Compound 16] | 42.2 µg/mL (≈ 140 µM) |  | 
C=CC[S+]([O-])CC=CSSC (stereo not shown) [Compound 17] | 49.1 µg/mL (≈ 236 µM) | 40.7 µg/mL (≈ 195 µM) | 
C=CCSSC=CC[S+]([O-])CC=C (stereo not shown) [ajoene] |  |  | antifungal activity (fungi): has antifungal activity; platelet aggregation inhibitory activity (platelet aggregation): demonstrated to have platelet aggregation inhibitory activity
C=CCSSSC [methylallyltrisulfide] |  |  | platelet aggregation inhibitory activity (platelet aggregation): platelet aggregation inhibitory activity
